Reference: US12668589B2, “N-formamidopyrazoline derivative as P2X3 receptor antagonist and use thereof” (HANGZHOU WESTAN PHARMACEUTICAL TECHNOLOGY CO., LTD, priority 2020, dated 2026)

Key:
human PAR-1 = biological target: T1, human PAR-1 (Homo sapiens, UniProt P25116); assay: Inhibitory activity against PAR-1, calcium ion flux fluorescence method (FLIPR); format: cell-based; conditions: HEK293/Ga15 cells expressing human PAR-1, TFLLR-NH2 10 μM, starting concentration 30 μM
T1 construct: host or cells: HEK293/Ga15 recombinant cell line
T1 sequence (P25116 22-425): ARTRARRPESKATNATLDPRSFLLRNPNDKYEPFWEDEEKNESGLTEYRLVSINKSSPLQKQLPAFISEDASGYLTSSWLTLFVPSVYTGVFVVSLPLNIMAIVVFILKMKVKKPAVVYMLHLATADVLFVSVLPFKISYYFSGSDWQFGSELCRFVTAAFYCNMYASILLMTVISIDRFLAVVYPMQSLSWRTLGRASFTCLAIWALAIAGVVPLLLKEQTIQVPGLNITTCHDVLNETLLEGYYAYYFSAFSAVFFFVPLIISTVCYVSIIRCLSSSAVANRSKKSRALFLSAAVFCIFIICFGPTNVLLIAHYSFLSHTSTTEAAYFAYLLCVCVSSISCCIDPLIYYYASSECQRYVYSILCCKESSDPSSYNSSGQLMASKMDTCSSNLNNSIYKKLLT
Protocol: The inhibitory activity of the title compounds against human PAR-1 was determined by a calcium ion flux fluorescence method (an FLIPR method). The method thereof was reported in the literature of Zhong et al. [Zhong et al. J Biomol Struct Dyn, 2017, 35(13):2853].
An HEK293/Ga15 recombinant cell line (HD Biosciences, Shanghai, China) stably expressing human PAR-1 was cultured in a DMEM (Thermo Fisher Scientific, Shanghai) culture solution (containing 10% calf serum, 800 μg/mL G418). Incubator conditions were 37° C. and an air humidity with 5% CO2.
On the first day, 20 μL per well of PAR-1 cells at a concentration of 4E+5 cells/mL were seeded in a 384-well analysis plate (Corning 3712). […] On the second day, a culture solution in each well was poured off. Then, 20 μL of 1×loading dye (2 μM Fluo-8 AM in 1×HBSS with 20 mM HEPES, 1 mM Probenecid, 0.025% Pluronic F-127 assay buffer) was added in each well. The cell analysis plate was cultured for 1 hour at a room temperature.
The compounds were dissolved into 100% DMSO to prepare a 10 mM stock solution, which was stored at −20° C. On the day of use, the compound stock solution was thawed at a room temperature. Each compound was subjected to 1:3 serial dilution at 11 concentration points with a DMEM culture solution with a starting concentration of 30 μM. Each compound was subjected to double dilution for testing. A positive control compound was diluted in the same way with SCH79797 with a starting concentration of 30 μM.
The cell analysis plate was placed in a FLIPR instrument (Molecular Device) and 10 μL of compounds (3× of a final concentration) in a compound plate was added to corresponding wells of the cell analysis plate. After 10 minutes, 10 μL of TFLLR-NH2 (TFA) (a final concentration of 10 μM) was added to each well to stimulate generation of intracellular calcium flux signals. Ca^++-dependent fluorescence signals were continuously monitored at excitation wavelengths of 470/495 nm and emission wavelengths of 515/575 nm to analyze the inhibitory activity of the compounds.
Data were collected and analyzed by using an FLIPR program. The inhibitory (or agonistic) activity of the compounds at each concentration was assessed by fluorescence peaks. IC50 values of the compounds were calculated by using EXCEL and PRISM programs.

rP2X3 = biological target: T2, rP2X3 (Rattus norvegicus, UniProt P49654); assay: Inhibitory activity against P2X3 in rats (electrophysiological method); format: cell-based
T2 construct: expressed in transfected cells; host or cells: HEK293
T2 sequence (P49654 1-397): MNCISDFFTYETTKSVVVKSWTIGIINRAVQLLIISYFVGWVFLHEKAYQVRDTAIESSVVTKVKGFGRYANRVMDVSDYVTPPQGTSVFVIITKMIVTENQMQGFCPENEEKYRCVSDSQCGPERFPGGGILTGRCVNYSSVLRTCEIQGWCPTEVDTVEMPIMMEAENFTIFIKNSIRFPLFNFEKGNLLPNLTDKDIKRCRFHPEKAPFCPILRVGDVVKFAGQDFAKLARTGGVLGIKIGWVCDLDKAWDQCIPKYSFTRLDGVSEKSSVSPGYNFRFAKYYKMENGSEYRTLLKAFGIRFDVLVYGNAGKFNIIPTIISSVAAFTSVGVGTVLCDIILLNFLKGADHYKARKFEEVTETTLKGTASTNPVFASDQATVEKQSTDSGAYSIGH

gpP2X3 = biological target: T3, gpP2X3 (Cavia porcellus, UniProt H0VWY5); assay: Inhibitory activity against P2X3 in guinea pigs (electrophysiological method); format: cell-based; conditions: guinea pig P2X3, electrophysiological method
T3 sequence (H0VWY5 1-391): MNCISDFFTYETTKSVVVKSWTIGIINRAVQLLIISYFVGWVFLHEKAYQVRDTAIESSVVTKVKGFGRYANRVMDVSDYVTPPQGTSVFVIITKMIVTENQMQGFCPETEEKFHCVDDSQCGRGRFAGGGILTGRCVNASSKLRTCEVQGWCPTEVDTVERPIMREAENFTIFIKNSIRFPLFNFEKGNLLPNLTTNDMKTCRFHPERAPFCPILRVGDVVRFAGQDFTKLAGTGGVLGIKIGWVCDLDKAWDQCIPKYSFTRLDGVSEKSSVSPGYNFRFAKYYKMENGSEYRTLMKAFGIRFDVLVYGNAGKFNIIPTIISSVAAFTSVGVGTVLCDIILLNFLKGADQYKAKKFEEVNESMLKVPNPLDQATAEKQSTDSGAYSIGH

human P2X4 = biological target: T4, human P2X4 (Homo sapiens, UniProt Q99571); assay: Inhibitory activity against human P2X4 (electrophysiological method); format: cell-based; conditions: read-out: hP2X4 (IC50)
T4 construct: expressed in transfected cells; host or cells: HEK293
T4 sequence (Q99571 1-388): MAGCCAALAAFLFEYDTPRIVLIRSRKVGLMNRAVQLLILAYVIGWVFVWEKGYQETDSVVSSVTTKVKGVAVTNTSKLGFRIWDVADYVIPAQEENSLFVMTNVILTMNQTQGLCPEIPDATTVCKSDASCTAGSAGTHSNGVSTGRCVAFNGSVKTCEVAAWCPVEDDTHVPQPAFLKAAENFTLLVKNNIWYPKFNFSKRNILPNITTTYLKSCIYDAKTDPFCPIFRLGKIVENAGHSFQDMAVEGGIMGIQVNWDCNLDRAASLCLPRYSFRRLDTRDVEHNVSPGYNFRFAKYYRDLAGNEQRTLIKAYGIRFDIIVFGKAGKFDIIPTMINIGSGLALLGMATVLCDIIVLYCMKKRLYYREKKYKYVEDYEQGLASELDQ

human P2X3 = biological target: T5, human P2X3 (Homo sapiens, UniProt P56373); assay: cell-based
T5 sequence (P56373 1-397): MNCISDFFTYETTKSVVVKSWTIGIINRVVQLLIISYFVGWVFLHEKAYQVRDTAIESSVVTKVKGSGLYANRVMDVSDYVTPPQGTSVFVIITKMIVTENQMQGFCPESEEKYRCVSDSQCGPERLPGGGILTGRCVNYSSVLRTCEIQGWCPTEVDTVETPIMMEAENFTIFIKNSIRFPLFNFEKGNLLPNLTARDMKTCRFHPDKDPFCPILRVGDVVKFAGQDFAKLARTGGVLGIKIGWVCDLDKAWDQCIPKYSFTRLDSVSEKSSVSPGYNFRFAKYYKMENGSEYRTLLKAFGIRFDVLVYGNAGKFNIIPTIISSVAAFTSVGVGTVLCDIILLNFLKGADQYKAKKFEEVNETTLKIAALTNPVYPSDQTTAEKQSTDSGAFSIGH

| SMILES | IC50 (human PAR-1) [nM] | IC50 (human P2X3) [nM] | other results |
| --- | --- | --- | --- |
| Cc1ccc(C2=NN(C(=O)N[C@H](C)c3ccc(C(F)(F)F)nc3)C[C@@H]2N2CCN(C)CC2=O)cc1 [Compound 17, (S)-4-(4-methyl-2-oxopiperazin-1-yl)-3-(4-methylphenyl)-N-((R)-1-(6-(trifluoromethyl)pyridin-3-yl)ethyl)-4,5-dihydro-1H-pyrazol-1-carboxamide] | > 30000 | – | IC50 (rP2X3): 140 nM; IC50 (gpP2X3): 387 nM |
| Cc1ccc(C2=NN(C(=O)N[C@H](C)c3ccc(C(F)(F)F)nc3)C[C@@H]2N2CCCC2=O)cc1 [Compound 21] | > 30000 | 129 | IC50 (human P2X4): > 20000 nM |
| Cc1ccc(C2=NN(C(=O)N[C@H](C)c3ccc(C(F)(F)F)nc3)C[C@H]2N2CCOC2=O)cc1 [Compound 22a, (R)-4-(2-oxooxazolidin-3-yl)-3-(4-methylphenyl)-N-((R)-1-(6-(trifluoromethyl)pyridin-3-yl)ethyl)-4,5-dihydro-1H-pyrazol-1-carboxamide] | – | 38 | IC50 (rP2X3): 57 nM; IC50 (gpP2X3): 578 nM; IC50 (human P2X4): > 20000 nM |
| Cc1ccc(C2=NN(C(=O)N[C@H](C)c3cnc(C(F)(F)F)nc3)C[C@H]2N2CCCC2=O)cc1 [Compound 32a, (R)-4-(2-oxopyrrolidin-1-yl)-3-(4-methylphenyl)-N-((R)-1-(2-(trifluoromethyl)pyrimidin-5-yl)ethyl)-4,5-dihydro-1H-pyrazol-1-carboxamide] | – | 82 | IC50 (human P2X4): > 20000 nM |
| Cc1ccc(C2=NN(C(=O)N[C@H](C)c3cnc(C(F)(F)F)nc3)C[C@@H]2N2CCOC2=O)cc1 [Compound 40, (S)-4-(2-oxooxazolidin-3-yl)-3-(4-methylphenyl)-N-((R)-1-(2-(trifluoromethyl)pyrimidin-5-yl)ethyl)-4,5-dihydro-1H-pyrazol-1-carboxamide] | > 30000 | – | – |
| Cc1ccc(C2=NN(C(=O)N[C@H](C)c3cnc(C(F)(F)F)nc3)C[C@@H]2N2CCN(C)C2=O)cc1 [Compound 41] | > 30000 | – | – |
| C[C@@H](NC(=O)N1C[C@@H](N2CCCC2=O)C(c2ccc(F)cc2)=N1)c1cnc(Cl)nc1 [Compound 44a, (R)-4-(2-oxopyrrolidin-1-yl)-3-(4-fluorophenyl)-N-((R)-1-(2-chloropyrimidin-5-yl)ethyl)-4,5-dihydro-1H-pyrazol-1-carboxamide] | – | 421 | – |

More lines, main results first:

| IC50 (human PAR-1) [nM] | IC50 (human P2X3) [nM] | SMILES | other results |
| --- | --- | --- | --- |
| > 30000 | – | Cc1ccc(C2=NN(C(=O)N[C@H](C)c3ccc(C(F)(F)F)nc3)C[C@@H]2N2CCOCC2=O)cc1 [Compound 1, (S)-4-(3-oxomorpholin-4-yl)-3-(4-methylphenyl)-N-((R)-1-(6-(trifluoromethyl)pyridin-3-yl)ethyl)-4,5-dihydro-1H-pyrazol-1-carboxamide] | – |
| > 30000 | – | Cc1ccc(C2=NN(C(=O)N[C@H](C)c3ccc(C(F)(F)F)cc3)C[C@@H]2N2CCOCC2=O)cc1 [Compound 20] | – |
| > 30000 | – | Cc1ccc(C2=NN(C(=O)N[C@H](C)c3ccc(C(F)(F)F)nn3)C[C@@H]2N2CCOCC2=O)cc1 [Compound 30, (S)-4-(3-oxomorpholin-4-yl)-3-(4-methylphenyl)-N-((R)-1-(6-(trifluoromethyl)pyridazin-3-yl)ethyl)-4,5-dihydro-1H-pyrazol-1-carboxamide] | – |
| > 30000 | – | Cc1ccc(C2=NN(C(=O)N[C@H](C)c3ccc(Cl)nn3)C[C@@H]2N2CCOC2=O)cc1 [Compound 31] | – |
| > 30000 | – | Cc1ccc(C2=NN(C(=O)N[C@H](C)c3nc(C)no3)C[C@@H]2N2CCCC2=O)cc1 [Compound 45] | – |
